Measured values from ChEMBL document CHEMBL3885861, “Open TG-GATES”.

Species on record: Rattus norvegicus
Test: Open TG-GATES - Regimen: Single
Assay type: toxicity, organism-based, Sprague-Dawley
Set-up: regimen Single, gender Male, age 6 weeks
Settings: in vivo, iv, 0 mg/kg, route intravenous injection, dose level Control; for APTT / Bas / Eos / Fbg / Hb / Ht / Lym / MCH / MCHC / MCV / Mono / Neu / PT / Plat / RBC / Ret / WBC: tissue Blood; for KIDNEY_L / KIDNEY_R / KIDNEY_TOTAL: tissue Kidney; for LIVER: tissue Liver; for A/G / ALP / ALT / AST / BUN / CRE / Ca / Cl / DBIL / GLC / IP / K / LDH / Na / PL / RALB / TBIL / TC / TG / TP / gamma-GTP: tissue Plasma

Compound: C[C@@H]1C[C@@H]([C@H](O)CC2CC(=O)NC(=O)C2)C(=O)[C@@H](C)C1 [CYCLOHEXIMIDE]
- TERMINAL_BW (3 h): 221.4 g
- APTT (3 h): 21.8 s
- Bas (3 h): 0%
- Eos (3 h): 1%
- Fbg (3 h): 315.6 mg/dL
- Hb (3 h): 13.1 g/dL
- Ht (3 h): 39.2%
- Lym (3 h): 75.6%
- MCH (3 h): 21.3 pg
- MCHC (3 h): 33.3%
- MCV (3 h): 64 fL
- Mono (3 h): 2.8%
- Neu (3 h): 19.4%
- PT (3 h): 16.2 s
- Plat (3 h): 120.1 x10_4/uL
- RBC (3 h): 612.2 x10_4/ul
- Ret (3 h): 8.7%
- WBC (3 h): 95.6 x10_2/uL
- KIDNEY_L (3 h): 1 g
- KIDNEY_R (3 h): 1 g
- KIDNEY_TOTAL (3 h): 2 g
- LIVER (3 h): 10.2 g
- A/G (3 h): 1.2
- ALP (3 h): 1480.4 IU/L
- ALT (3 h): 44.4 IU/L
- AST (3 h): 75.4 IU/L
- BUN (3 h): 11.4 mg/dL
- CRE (3 h): 0.1 mg/dL
- Ca (3 h): 10.4 mg/dL
- Cl (3 h): 106.8 meq/L
- DBIL (3 h): 0.004 mg/dL
- GLC (3 h): 187 mg/dL
- IP (3 h): 9.1 mg/dL
- K (3 h): 4 meq/L
- LDH (3 h): 171.8 IU/L
- Na (3 h): 141 meq/L
- PL (3 h): 130.8 mg/dL
- RALB (3 h): 2.9 g/dL
- TBIL (3 h): 0.024 mg/dL
- TC (3 h): 76.8 mg/dL
- TG (3 h): 49.2 mg/dL
- TP (3 h): 5.2 g/dL
- gamma-GTP (3 h): 1.4 IU/L
- TERMINAL_BW (6 h): 214.4 g
- APTT (6 h): 22.6 s
- Bas (6 h): 0%
- Eos (6 h): 1%
- Fbg (6 h): 314.4 mg/dL
- Hb (6 h): 13.4 g/dL
- Ht (6 h): 39.9%
- Lym (6 h): 78.2%
- MCH (6 h): 21.4 pg
- MCHC (6 h): 33.6%
- MCV (6 h): 64 fL
- Mono (6 h): 2.8%
- Neu (6 h): 17.2%
- PT (6 h): 15.5 s
- Plat (6 h): 113.8 x10_4/uL
- RBC (6 h): 624 x10_4/ul
- Ret (6 h): 8.7%
- WBC (6 h): 88.7 x10_2/uL
- KIDNEY_L (6 h): 1 g
- KIDNEY_R (6 h): 1 g
- KIDNEY_TOTAL (6 h): 2 g
- LIVER (6 h): 9.4 g
- A/G (6 h): 1.3
- ALP (6 h): 1423 IU/L
- ALT (6 h): 38.6 IU/L
- AST (6 h): 71.6 IU/L
- BUN (6 h): 10 mg/dL
- CRE (6 h): 0.1 mg/dL
- Ca (6 h): 10.5 mg/dL
- Cl (6 h): 107.2 meq/L
- DBIL (6 h): 0.002 mg/dL
- GLC (6 h): 177 mg/dL
- IP (6 h): 9.2 mg/dL
- K (6 h): 4.2 meq/L
- LDH (6 h): 198.8 IU/L
- Na (6 h): 140.8 meq/L
- PL (6 h): 139.6 mg/dL
- RALB (6 h): 2.9 g/dL
- TBIL (6 h): 0.036 mg/dL
- TC (6 h): 78.6 mg/dL
- TG (6 h): 52 mg/dL
- TP (6 h): 5.2 g/dL
- gamma-GTP (6 h): 1.2 IU/L
- TERMINAL_BW (9 h): 215.8 g
- APTT (9 h): 23.2 s
- Bas (9 h): 0%
- Eos (9 h): 0.6%
- Fbg (9 h): 313.4 mg/dL
- Hb (9 h): 12.9 g/dL
- Ht (9 h): 38.5%
- Lym (9 h): 78.8%
- MCH (9 h): 20.8 pg
- MCHC (9 h): 33.4%
- MCV (9 h): 62.2 fL
- Mono (9 h): 2%
- Neu (9 h): 17.8%
- PT (9 h): 15.8 s
- Plat (9 h): 109.2 x10_4/uL
- RBC (9 h): 620.6 x10_4/ul
- Ret (9 h): 8.1%
- WBC (9 h): 65.1 x10_2/uL
- KIDNEY_L (9 h): 1 g
- KIDNEY_R (9 h): 1 g
- KIDNEY_TOTAL (9 h): 2 g
- LIVER (9 h): 9 g
- A/G (9 h): 1.3
- ALP (9 h): 1329.2 IU/L
- ALT (9 h): 37.4 IU/L
- AST (9 h): 71 IU/L
- BUN (9 h): 10 mg/dL
- CRE (9 h): 0.1 mg/dL
- Ca (9 h): 10.4 mg/dL
- Cl (9 h): 106.4 meq/L
- DBIL (9 h): 0.002 mg/dL
- GLC (9 h): 176 mg/dL
- IP (9 h): 9.7 mg/dL
- K (9 h): 3.9 meq/L
- LDH (9 h): 164.6 IU/L
- Na (9 h): 142.4 meq/L
- PL (9 h): 125.8 mg/dL
- RALB (9 h): 3 g/dL
- TBIL (9 h): 0.036 mg/dL
- TC (9 h): 72.4 mg/dL
- TG (9 h): 37.6 mg/dL
- TP (9 h): 5.4 g/dL
- gamma-GTP (9 h): 1.4 IU/L
- TERMINAL_BW (24 h): 229.3 g
- APTT (24 h): 22.3 s
- Bas (24 h): 0%
- Eos (24 h): 1%
- Fbg (24 h): 319.8 mg/dL
- Hb (24 h): 13.5 g/dL
- Ht (24 h): 40.3%
- Lym (24 h): 80.6%
- MCH (24 h): 21 pg
- MCHC (24 h): 33.5%
- MCV (24 h): 62.5 fL
- Mono (24 h): 2.8%
- Neu (24 h): 14.6%
- PT (24 h): 16 s
- Plat (24 h): 119 x10_4/uL
- RBC (24 h): 643.8 x10_4/ul
- Ret (24 h): 8.7%
- WBC (24 h): 90.5 x10_2/uL
- KIDNEY_L (24 h): 1 g
- KIDNEY_R (24 h): 1 g
- KIDNEY_TOTAL (24 h): 2 g
- LIVER (24 h): 11 g
- A/G (24 h): 1.2
- ALP (24 h): 1510.6 IU/L
- ALT (24 h): 38.2 IU/L
- AST (24 h): 65.8 IU/L
- BUN (24 h): 16 mg/dL
- CRE (24 h): 0.1 mg/dL
- Ca (24 h): 10.8 mg/dL
- Cl (24 h): 106 meq/L
- DBIL (24 h): 0 mg/dL
- GLC (24 h): 202.2 mg/dL
- IP (24 h): 7.7 mg/dL
- K (24 h): 4.2 meq/L
- LDH (24 h): 179.2 IU/L
- Na (24 h): 140.4 meq/L
- PL (24 h): 142.8 mg/dL
- RALB (24 h): 3 g/dL
